The values that follow are results of earlier work, collected in patent publication US5641787A, “Indole derivatives as dopamine D4 antagonists” (Merck, Sharp & Dohme Ltd., priority 1995, dated 1997).

SMILES strings stand for the structures.

For this series the following is noted: stated in Recl. Trav. Chim. Pays-Bas, 1954, 73, 629.

Consider `c1ccc2c(c1)CCN(Cc1c[nH]c3ccccc13)C2` [3-(1,2,3,4-tetrahydroisoquinolin-2-yl)methyl-1H-indole], for which the oxytocic activity entry is reported as “oxytocic activity”.
